Measurements: patent US20240374567A1, “Combination Treatments for Cancer Patients and Methods for Identifying Same” (Scandion Oncology A/S, priority 2021, published 2024)

Tested on: UGT1A1
Assay: Clinical study of SCO-101 with FOLFIRI: serum bilirubin and bilirubin index after SCO-101
Format: in vivo, human
Description: The term “bilirubin index” as used herein or “bilirubin index score” which are used interchangeably, refer to a patient's rate of bilirubin normalization subsequent to administration of an UGT1A1 inhibitor to the patient. Herein, the bilirubin index is determined subsequent to administration of an UGT1A1 inhibitor to the patient for a number of consecutive days, such as 1, 2, 3, 4, 5, or 6, preferably 6 days. Based on 6 consecutive days of administration with an UGT1A1 inhibitor, the bilirubin index is determined as the bilirubin serum or plasma concentration (unconjugated or total bilirubin) on day 12 divided with the bilirubin serum or plasma concentration on day 7 and thus is an indicator of how much the patients' UGT1A1 activity has normalized following cessation of SCO-101 treatment and can be determined using bilirubin as a surrogate marker.
Bilirubin: Blood sampling for analysis of bilirubin (total, unconjugated and conjugated) were withdrawn at Screening (up to 4 weeks prior start of treatment), day 5, day 7 and day 12 in the first treatment cycle.
Likely, the increase in unconjugated bilirubin is mediated through inhibition of the enzyme UDP-glucuronosyltransferase 1 family, polypeptide A1 (UGT1A1). UGT1A1 is an enzyme responsible for conjugation of poorly soluble endo- and xenobiotics making them more soluble and possible to excrete. UGT1A1 is the primary enzyme responsible for conjugation of bilirubin and metabolism of Irinotecan's active metabolite SN-38. The bilirubin index score is the bilirubin serum concentration (unconjugated or total bilirubin) on day 12 divided with the bilirubin serum concentration on day 7 and thus is an indicator of how much the patients' UGT1A1 activity has normalized following cessation of SCO-101 treatment, and can be determined using bilirubin as a surrogate marker. In FIG. 2, an overview of the bilirubin index for all patients is included. The mean bilirubin index score for the six RAS wild type patients is approximately 0.15 (lowest 0.04, highest 0.28) whereas the mean score for the six RAS mutated patients is 0.59 (lowest 0.25, highest 0.76). Thus, there is a strong indication that the bilirubin index can predict a patient's tolerability to treatment.

SMILES: O=C(Nc1cc(C(F)(F)F)cc(C(F)(F)F)c1)Nc1ccc(Br)cc1-c1nnn[nH]1 [SCO-101]
- reversibility of bilirubin increase / UGT1A1 inhibition (after discontinuation of SCO-101 treatment): completely reversible
- bilirubin index (bilirubin serum concentration on day 12 divided with day 7) (patients with RAS mutation, cohort 1 (150 mg SCO-101), cycle 1): above 0.4
- effect on unconjugated bilirubin serum concentration (patients, SCO-101 days 1 to 6): specific and dose dependent increase
- highest bilirubin index score (six RAS mutated patients): 0.76
- lowest bilirubin index score (six RAS mutated patients): 0.25
- mean bilirubin index score (six RAS mutated patients): 0.59
- highest bilirubin index score (six RAS wild type patients): 0.28
- lowest bilirubin index score (six RAS wild type patients): 0.04
- mean bilirubin index score (six RAS wild type patients): approximately 0.15
